Measurements reported in PubChem BioAssay AID1963424 (Molecular Pharmacology Branch, DTP, NCI, 2024).

Tested on: 327498-153-R-J2-PDC complex spheroid growth, % test/control
Test: Anticancer human tumor 327498-153-R-J2-PDC patient-derived uterine carcinosarcoma cell line growth inhibition [Asc]
Conditions: for IC50: curve of first compound; for viability, T/C: stronger effect = lower value
Procedure, shortened: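 Tumor cells were grown as complex spheroids with human endothelial cells (HUVEC) and human mesenchymal stem cells as stroma. Agents were tested alone and in combination, in half-log steps down from the clinical Cmax, or from 10 microM where Cmax was unknown.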

[1] = second compound 0.01 µM, first compound 0.0316 µM
[2] = second compound 0.01 µM, first compound 0.1 µM
[3] = second compound 0.01 µM, first compound 0.316 µM
[4] = second compound 0.01 µM, first compound 1 µM
[5] = second compound 0.0316 µM, first compound 0.0316 µM
[6] = second compound 0.0316 µM, first compound 0.1 µM
[7] = second compound 0.0316 µM, first compound 0.316 µM
[8] = second compound 0.0316 µM, first compound 1 µM
[9] = second compound 0.1 µM, first compound 0.0316 µM
[10] = second compound 0.1 µM, first compound 0.1 µM
[11] = second compound 0.1 µM, first compound 0.316 µM
[12] = second compound 0.1 µM, first compound 1 µM
[13] = second compound 0.316 µM, first compound 0.0316 µM
[14] = second compound 0.316 µM, first compound 0.1 µM
[15] = second compound 0.316 µM, first compound 0.316 µM
[16] = second compound 0.316 µM, first compound 1 µM
[17] = second compound 1 µM, first compound 0.0316 µM
[18] = second compound 1 µM, first compound 0.1 µM
[19] = second compound 1 µM, first compound 0.316 µM
[20] = second compound 1 µM, first compound 1 µM
[21] = second compound 0.01 µM, first compound 0.00316 µM
[22] = second compound 0.01 µM, first compound 0.01 µM
[23] = second compound 0.0316 µM, first compound 0.00316 µM
[24] = second compound 0.0316 µM, first compound 0.01 µM
[25] = second compound 0.1 µM, first compound 0.00316 µM
[26] = second compound 0.1 µM, first compound 0.01 µM
[27] = second compound 0.316 µM, first compound 0.00316 µM
[28] = second compound 0.316 µM, first compound 0.01 µM
[29] = second compound 1 µM, first compound 0.00316 µM
[30] = second compound 1 µM, first compound 0.01 µM
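Note: spheroids exposed to compound for 7 days after 3 days of growth.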
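Throughout, for viability, T/C: 100% = DMSO vehicle control wells.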

SMILES: C=CC(=O)N1CCN(c2nc(=O)n(-c3c(C)ccnc3C(C)C)c3nc(-c4c(O)cccc4F)c(F)cc23)C(C)C1 (stereo not given) + CNC(C)C(=O)NC1CN(S(=O)(=O)c2cccc(S(=O)(=O)N3CCC4CCC(C(=O)NC(c5ccccc5)c5ccccc5)N4C(=O)C(NC(=O)C(C)NC)C3)c2)CCC2CCC(C(=O)NC(c3ccccc3)c3ccccc3)N2C1=O
- IC50 (second compound 0.01 µM): > 10000 nM
- IC50 (second compound 0.0316 µM): > 10000 nM
- IC50 (second compound 0.1 µM): > 10000 nM
- IC50 (second compound 0.316 µM): > 10000 nM
- IC50 (second compound 1 µM): > 10000 nM
- viability, T/C [1]: 84.2%
- viability, T/C [2]: 96%
- viability, T/C [3]: 75%
- viability, T/C [4]: 74.6%
- viability, T/C (second compound 0.01 µM, first compound 3.16 µM): 77.8%
- viability, T/C (second compound 0.01 µM, first compound 10 µM): 64.6%
- viability, T/C [5]: 83.5%
- viability, T/C [6]: 77.9%
- viability, T/C [7]: 70.5%
- viability, T/C [8]: 67%
- viability, T/C (second compound 0.0316 µM, first compound 3.16 µM): 72.2%
- viability, T/C (second compound 0.0316 µM, first compound 10 µM): 62.9%
- viability, T/C [9]: 86%
- viability, T/C [10]: 79.4%
- viability, T/C [11]: 84.5%
- viability, T/C [12]: 77.6%
- viability, T/C (second compound 0.1 µM, first compound 3.16 µM): 70.4%
- viability, T/C (second compound 0.1 µM, first compound 10 µM): 67.6%
- viability, T/C [13]: 89.4%
- viability, T/C [14]: 83.3%
- viability, T/C [15]: 80.7%
- viability, T/C [16]: 73.8%
- viability, T/C (second compound 0.316 µM, first compound 3.16 µM): 77.2%
- viability, T/C (second compound 0.316 µM, first compound 10 µM): 75.5%
- viability, T/C [17]: 90.6%
- viability, T/C [18]: 78.8%
- viability, T/C [19]: 85.4%
- viability, T/C [20]: 77%
- viability, T/C (second compound 1 µM, first compound 3.16 µM): 72.2%
- viability, T/C (second compound 1 µM, first compound 10 µM): 69.7%

SMILES: COc1c(OCCCN2CCOCC2)ccc2c3n(c(=NC(=O)c4cnc(N)nc4)nc12)CCN3 + CNC(C)C(=O)NC1CN(S(=O)(=O)c2cccc(S(=O)(=O)N3CCC4CCC(C(=O)NC(c5ccccc5)c5ccccc5)N4C(=O)C(NC(=O)C(C)NC)C3)c2)CCC2CCC(C(=O)NC(c3ccccc3)c3ccccc3)N2C1=O
- IC50 (second compound 0.01 µM): 144 nM
- IC50 (second compound 0.0316 µM): 144 nM
- IC50 (second compound 0.1 µM): 135 nM
- IC50 (second compound 0.316 µM): 137 nM
- IC50 (second compound 1 µM): 146 nM
- viability, T/C [21]: 93.4%
- viability, T/C [22]: 92.7%
- viability, T/C [1]: 92.3%
- viability, T/C [2]: 57.5%
- viability, T/C [3]: 27.6%
- viability, T/C [4]: 4.73%
- viability, T/C [23]: 96.7%
- viability, T/C [24]: 94.9%
- viability, T/C [5]: 79.1%
- viability, T/C [6]: 62.1%
- viability, T/C [7]: 27.8%
- viability, T/C [8]: 3.85%
- viability, T/C [25]: 106%
- viability, T/C [26]: 89.5%
- viability, T/C [9]: 85.7%
- viability, T/C [10]: 59%
- viability, T/C [11]: 25.7%
- viability, T/C [12]: 3.38%
- viability, T/C [27]: 111%
- viability, T/C [28]: 110%
- viability, T/C [13]: 86.1%
- viability, T/C [14]: 59%
- viability, T/C [15]: 26.9%
- viability, T/C [16]: 2.23%
- viability, T/C [29]: 111%
- viability, T/C [30]: 95.2%
- viability, T/C [17]: 85.1%
- viability, T/C [18]: 65%
- viability, T/C [19]: 24.8%
- viability, T/C [20]: 2.95%

SMILES: NC1CCC(NC2CC2c2ccccc2)CC1 (stereo not given) + CNC(C)C(=O)NC1CN(S(=O)(=O)c2cccc(S(=O)(=O)N3CCC4CCC(C(=O)NC(c5ccccc5)c5ccccc5)N4C(=O)C(NC(=O)C(C)NC)C3)c2)CCC2CCC(C(=O)NC(c3ccccc3)c3ccccc3)N2C1=O
- IC50 (second compound 0.01 µM): > 100 nM
- IC50 (second compound 0.0316 µM): > 100 nM
- IC50 (second compound 0.1 µM): > 100 nM
- IC50 (second compound 0.316 µM): > 100 nM
- IC50 (second compound 1 µM): > 100 nM
- viability, T/C (second compound 0.01 µM, first compound 0.000316 µM): 103%
- viability, T/C (second compound 0.01 µM, first compound 0.001 µM): 106%
- viability, T/C [21]: 92.3%
- viability, T/C [22]: 97.6%
- viability, T/C [1]: 99.4%
- viability, T/C [2]: 96%
- viability, T/C (second compound 0.0316 µM, first compound 0.000316 µM): 104%
- viability, T/C (second compound 0.0316 µM, first compound 0.001 µM): 104%
- viability, T/C [23]: 101%
- viability, T/C [24]: 100%
- viability, T/C [5]: 99.9%
- viability, T/C [6]: 101%
- viability, T/C (second compound 0.1 µM, first compound 0.000316 µM): 100%
- viability, T/C (second compound 0.1 µM, first compound 0.001 µM): 101%
- viability, T/C [25]: 100%
- viability, T/C [26]: 104%
- viability, T/C [9]: 108%
- viability, T/C [10]: 98.9%
- viability, T/C (second compound 0.316 µM, first compound 0.000316 µM): 101%
- viability, T/C (second compound 0.316 µM, first compound 0.001 µM): 107%
- viability, T/C [27]: 106%
- viability, T/C [28]: 98.5%
- viability, T/C [13]: 96.8%
- viability, T/C [14]: 100%
- viability, T/C (second compound 1 µM, first compound 0.000316 µM): 106%
- viability, T/C (second compound 1 µM, first compound 0.001 µM): 113%
- viability, T/C [29]: 108%
- viability, T/C [30]: 105%
- viability, T/C [17]: 94.7%
- viability, T/C [18]: 97.8%
